Data published in publication PMC9436819 (JACC: Basic to Translational Science, 2022).
“And” between values parts separate entries of the source, which are not always exact repeats. Equal values may be shown once.

Test system: healthy adults
Test: Echocardiography (core laboratory) pharmacodynamics, SAD cohorts
Assay type: in vivo, human
Protocol: For PD assessments of LVEF, echocardiograms for the SAD and MAD cohorts were interpreted by the echocardiography core laboratory and used for all data analysis and dose-level review decisions, and immediate local interpretation of the echocardiograms was performed for safety monitoring. […] Echocardiograms on day 3 (48 hours after dosing) were obtained only if the 24-hour LVEF had not returned to near or above baseline, as determined by the investigator. In the MAD cohorts, echocardiograms were obtained on day -1; predose on day 1; at 1.5 hours postdose on days 2, 4, and 9; and at 1.5, 24, and 72 hours postdose on day 14 (for the 5-mg and 10-mg cohorts) or on day 17 (for the 7.5-mg cohort). Echocardiograms were obtained 3 days after the last dose (on day 17 or 20) only if the participant’s prior LVEF was not near or above baseline, as determined by the investigator.
Using echocardiography instrumentation certified for clinical use, echocardiographic images were obtained from standard views based on American Society of Echocardiography recommendations for chamber quantification.[19] To obtain the LVEF, the endocardial borders of 3 different cardiac cycles were traced at both end diastole and end systole from the apical 4- and 2-chamber views and LV end-diastolic volume (LVEDV) and LV end-systolic volume (LVESV), calculated using the Simpson’s method of discs algorithm. Ejection fraction was calculated in the standard manner: LVEF = (LVEDV − LVESV)/LVEDV. The intraobserver variability (coefficient of variation) for LVEF was 8%.
All participants who received ≥1 dose of the study drug and had ≥1 predose and ≥1 postdose echocardiographic measurements were included in the PD analysis set. […] Descriptive statistics of the echocardiographic parameters were generated using SAS, version 9.3 or higher. Dose-response analysis was performed using analysis of covariance to identify the least-squares mean difference (aficamten minus placebo), as described in the Supplemental Appendix. Analyses of concentration “bin” and exposure-response were also performed using analysis of covariance, as described in the Supplemental Appendix. SAS PROC MIXED was used for all comparative analyses.
Statistical A nalysis of P harmacodynamic (PD) P aram eters
To analyze the impact of drug dose on echocardiographic parameters in the SAD and MAD
cohorts, an inferential analysis was conducted on t he PD analysis set using linear mixed models
for rep eated -measur es an alysis of covarian ce ( AN COVA). The A NCOVA used baseline valu e as
a covariate, included treatment, time-point, and time-point-by- treatment interaction as fixed
effects, and ch ange f rom baseline as the d ependent variable. Th e unstructur ed varian ce-
covarian ce structu re w as used, and the model acco unted for the time- point r epeated m easur es.
The ANCOVA analysis was conducted separately for each study part and f or each PD p aram eter .
The least-squares means, the difference in least squares means (active minus placebo), and the
associated 2-sided 95% CIs were presented for each comparison.
Concentration bin analysis
An additional inferential analysis was performed i n the SAD and MAD cohorts , to evaluate the
analysis set. A concentrat ion bin ANCOVA was conducted using linear mi xed models for
repeat ed-measures an aly ses with concentr ation bin group as a fix ed ef fect, baseline PD
parameters as a covari ate, change f rom baseline as the dependent v ariable, and a random
intercept to adjust for the repeat ed measures. The unstructured variance-co variance structur e was
used.Plasma concentr ations of aficamten wer e paired with coincident PD parameters. The
ANCOVA compared the change in PD parameters between each bin versus the pooled placebo
group. The least-squ ares means, the differen ce in l east squares m eans (bin group minus placebo),
and the associat ed 2-sided 95% CIs were pres ented for each comparison. The ANCOVA analysis

[1] = SAD 50 mg (n = 11), […] postdose

CCc1nc(-c2ccc3c(c2)CC[C@H]3NC(=O)c2cnn(C)c2)no1 [Aficamten]
Participants with absolute reduction in LVEF of ≥5% from baseline (SAD 1 mg): no participants | Participants with absolute reduction in LVEF of ≥5% from baseline (SAD 3 mg, 1 of 6): 17% | Participants with absolute reduction in LVEF of ≥5% from baseline (SAD 10 mg): no participants | Participants with absolute reduction in LVEF of ≥5% from baseline (SAD 25 mg): no participants | Participants with absolute reduction in LVEF of ≥10% (SAD 40 mg, 1 of 6): 17% | Participants with absolute reduction in LVEF of ≥5% from baseline (SAD 40 mg, 2 of 6): 33% | A (peak A wave velocity), mean [1]: 54.5 cm/s | A (peak A wave velocity), mean change from baseline [1]: 2.5 cm/s | E (peak E wave velocity), mean [1]: 64.0 cm/s | E (peak E wave velocity), mean change from baseline [1]: -2.7 cm/s | Heart rate, mean [1]: 62.3 bpm | Heart rate, mean change from baseline [1]: 0.5 bpm | IVCT, mean [1]: 42.6 ms | IVCT, mean change from baseline [1]: 0.4 ms | IVRT, mean [1]: 69.3 ms | IVRT, mean change from baseline [1]: 0.5 ms | LAV, mean [1]: 35.7 mL | LAV, mean change from baseline [1]: 0.0 mL | LV CO, mean [1]: 3240 mL | LV CO, mean change from baseline [1]: -346 mL | LV EDV, mean [1]: 99.8 mL | LV EDV, mean change from baseline [1]: 6.6 mL | LV ESV, mean [1]: 39.7 mL | LV ESV, mean change from baseline [1]: 8.1 mL | LV ET, mean [1]: 328 ms | LV SV, mean [1]: 52.6 mL | LV SV, mean change from baseline [1]: -6.2 mL | LVEF, mean [1]: 60.5% | LVEF, mean change from baseline [1]: -5.8% | e' lateral, mean [1]: 10.2 cm/s | e' lateral, mean change from baseline [1]: -1.3 cm/s | Participants with reduction in LVEF to <50% (SAD 50 mg, 2 of 11, core laboratory): 18% | Participants with absolute reduction in LVEF of ≥5% from baseline (SAD 50 mg, 7 of 11): 64% | Mean maximum reduction in LVEF from baseline (SAD 50 mg, […] postdose): 5.8% | Reduction in LVEF, placebo corrected least-squares mean difference (SAD 50 mg, […] postdose): 5.5% | LVEF of the individual participants with LVEF <50% (SAD 50 mg, per core laboratory assessment): 48.2% and 45.5% | Participants with absolute reduction in LVEF of ≥5% from baseline (SAD 75 mg, 1 of 1): 100% | Participants with reduction in LVEF to <50% (SAD 75 mg, 1 of 1, core laboratory): 100% | Participants with absolute reduction in LVEF of ≥10% (SAD 75 mg, 1 participant): 100% | LVEF of the participant (only participant with LVEF <45%) (SAD 75 mg, core laboratory): < 45% | Relationship of LVEF to plasma concentration (SAD cohorts, highest concentration bin 122-524 ng/mL P < 0.001, concentration-slope analysis P = 0.003): statistically significant decrease | Time for reversal of decreases in LVEF to <50% (following single doses): ≤ 6 h | Time for LVEF to return to baseline (participants whose LVEFs fell below 50%): ≤ 24 h | Time after dosing at which LVEF <50% was noted (single 50 or 75 mg): approximately 1.5 hours
